Test results reported in US12551459B2, “Combination of kynurenine and antigen presenting cells (APC) as therapeutics and methods for their use in immune modulation” (THE UNIVERSITY OF BRITISH COLUMBIA, priority 2014, dated 2026).

Key:
[1] = set-up: species or system mice; conditions: NOD (non-obese diabetic), mouse, in vivo, sc
Method: Non-obese diabetic (NOD) mice were intraperitoneal (IP) injected with normal fibroblasts (non-IDO-expressing, 2×10^7 cells per mouse) at the onset of hyperglycemia. Following IP fibroblast injection, the mice were given daily subcutaneous DL-kynurenine injections (20 μg/mouse). The blood glucose levels were monitored twice a week. For the controls, mice were either given only the IP fibroblast injection, or only the daily subcutaneous kynurenine injections as set out above, or were give no treatment at all.
Furthermore, in mouse 1 and mouse 2 (shown in FIG. 1) the subcutaneous kynurenine injections were stopped at 119 and 77 days post IP fibroblast injection, respectively, without a subsequent increase in blood glucose above 10 mM. Kyn injections were done daily because it was cleared from the blood within 8-10 hours. Glucose levels were monitored for up to 120 days, but control groups were sacrificed at earlier time points due to a high level of glucose and prevent the mice from suffering.

[2] = tested on: C3H/HeJ mice induced to develop alopecia areata (AA); test: Prevention of alopecia areata in C3H/HeJ mice by fibroblast + kynurenine treatment; type: in vivo
Method: Prevention of alopecia areata by combination fibroblast+kynurenine treatment: C3H/HeJ mice were induce to develop alopecia areata (AA) by intradermal injection of lymph node cells from AA affected mice. These mice (5 per group) then received either no treatment, a single-dose injection of 2×10^6 unmodified primary dermal fibroblasts to peritoneal cavity, oral kynurenine (added to drinking water, 100 μg/mL), or a combination therapy consisting of a) single-dose injection of 2×10^6 unmodified primary dermal fibroblasts to peritoneal cavity and b) oral kynurenine (added to drinking water, 100 μg/mL).

[3] = after 120 days, of Total mice per group

Structure (SMILES) | cleared from the blood within [1] [h] | hair loss pattern after 120 days ([2]; FIG. 4A) | AA (number of mice with alopecia areata) [2, 3] | Normal (number of mice) [2, 3] | Prevention (%) ([2]; prevention of AA)
Nc1ccccc1C(=O)CC(N)C(=O)O (racemic) [Kyn, DL-kynurenine] | 8 to 10 | – | – | – | –
Nc1ccccc1C(=O)CC(N)C(=O)O (centres unmarked) [FS1 alone, kynurenine] | – | some hair growth | 4 | 1 | 20
